Experimental data as given in patent US10357493B2, “Metalloenzyme inhibitor compounds” (Selenity Therapeutics (Bermuda), Ltd., priority 2017, dated 2019).
Where two headings read alike, the source gives them in different places.

Assays:
[1] = target: HDAC10 (Homo sapiens (Human), UniProt Q969S8); experiment: HDAC10 enzymatic assay; assay type: biochemical; conditions: selectivity profile; read-out: HDAC Enzyme IC50, HDAC 10
Procedure: (§1) All enzymatic reactions were conducted in duplicate at room temperature for 17 hours in a 50 μl mixture containing HDAC assay buffer (50 mM Tris-HCl, pH 7.4, 137 mM NaCl, 2.7 mM KCl, 0.05% Tween 20, 5 μg BSA), an HDAC substrate, an HDAC enzyme, and a test compound. Compound dilution was prepared ten-fold higher than the final concentration of the compounds with 10% DMSO in HDAC assay buffer and 5 μl of the dilution was added to a 50 μl reaction so that the final concentration of DMSO is 1% in all of reactions. After enzymatic reactions, 50 μl of HDAC Developer was added to each well and the plate was incubated at room temperature for an additional 20 minutes. Fluorescence intensity was measured at an excitation of 360 nm and an emission of 460 nm using a Tecan Infinite M1000 or Biotek Synergy microplate reader.
(§2) The fluorescent intensity data were analyzed using the computer software, Graphpad Prism. In the absence of the compound, the fluorescent intensity (Ft) in each data set was defined as 100% activity. In the absence of HDAC, the fluorescent intensity (Fb) in each data set was defined as 0% activity. The percent activity in the presence of each compound was calculated according to the following equation: % activity=(F−Fb)/(Ft−Fb), where F=the fluorescent intensity in the presence of the compound.
(§3) The values of % activity versus a series of compound concentrations were then plotted using non-linear regression analysis of Sigmoidal dose-response curve generated with the equation Y=B+(T−B)/1+10((Log EC50−X)×Hill Slope), where Y=percent activity, B=minimum percent activity, T=maximum percent activity, X=logarithm of compound and Hill Slope=slope factor or Hill coefficient. The IC50 value was determined by the concentration causing a half-maximal percent activity.
(§4) HDAC1 enzymatic assays contained 0.5 ng HDAC1 and 10 uM of HDAC substrate. HDAC2 enzymatic assays contained 0.5 ng HDAC2 and 10 uM of HDAC substrate. HDAC3 enzymatic assays contained 0.4 ng HDAC3/NCOR2 and 10 uM of HDAC substrate. HDAC4 enzymatic assays contained 0.02 ng HDAC4 and 2 uM of HDAC substrate. HDAC5 enzymatic assays contained 0.5 ng HDAC5 and 2 uM of HDAC substrate. HDAC6 enzymatic assays contained 2 ng HDAC6 and 10 uM of HDAC substrate. HDAC7 enzymatic assays contained 0.05 ng HDAC7 and 2 uM of HDAC substrate. HDAC8 enzymatic assays contained 5 ng HDAC8 and 2 uM of HDAC substrate. HDAC9 enzymatic assays contained 1 ng HDAC9 and 2 uM of HDAC substrate. HDAC10 enzymatic assays contained 75 ng HDAC10 and 10 uM of HDAC substrate. HDAC11 enzymatic assays contained 5 ng HDAC11 and 2 uM of HDAC substrate.

[2] = target: HDAC3/NCOR2 (Homo sapiens (Human), UniProt O15379); experiment: HDAC3 enzymatic assay; assay type: biochemical; conditions: selectivity profile; read-out: HDAC Enzyme IC50, HDAC 3
Procedure: as §1, §2, §3, §4

[3] = target: HDAC9 (Homo sapiens (Human), UniProt Q9UKV0); experiment: HDAC9 enzymatic assay; assay type: biochemical; conditions: selectivity profile; read-out: HDAC Enzyme IC50, HDAC 9
Procedure: as §1, §2, §3, §4

[4] = target: HDAC7 (Homo sapiens (Human), UniProt Q8WUI4); experiment: HDAC7 enzymatic assay; assay type: biochemical; conditions: selectivity profile; read-out: HDAC Enzyme IC50, HDAC 7
Procedure: as §1, §2, §3, §4

[5] = target: HDAC5 (Homo sapiens (Human), UniProt Q9UQL6); experiment: HDAC5 enzymatic assay; assay type: biochemical; conditions: selectivity profile; read-out: HDAC Enzyme IC50, HDAC 5
Procedure: as §1, §2, §3, §4

[6] = target: HDAC8 (Homo sapiens (Human), UniProt Q9BY41); experiment: HDAC8 enzymatic assay; assay type: biochemical; conditions: selectivity profile; read-out: HDAC Enzyme IC50, HDAC 8
Procedure: as §1, §2, §3, §4

[7] = target: HDAC4 (Homo sapiens (Human), UniProt P56524); experiment: HDAC4 enzymatic assay; assay type: biochemical; conditions: selectivity profile; read-out: HDAC Enzyme IC50, HDAC 4
Procedure: as §1, §2, §3, §4

[8] = target: HDAC11 (Homo sapiens (Human), UniProt Q96DB2); experiment: HDAC11 enzymatic assay; assay type: biochemical; conditions: selectivity profile; read-out: HDAC Enzyme IC50, HDAC 11
Procedure: as §1, §2, §3, §4

[9] = target: HDAC6 (Homo sapiens (Human), UniProt Q9UBN7); experiment: HDAC6 enzymatic assay; assay type: biochemical
Outline: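 Human HDAC6 activity was measured in duplicate 50 μl reactions holding 2 ng HDAC6, 10 uM of HDAC substrate and test compound in HDAC assay buffer (50 mM Tris-HCl, pH 7.4, 137 mM NaCl, 2.7 mM KCl, 0.05% Tween 20, 5 μg BSA) with 1% DMSO, for 17 hours at room temperature. HDAC Developer was added for 20 minutes before reading fluorescence at 360/460 nm.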

[10] = Mouse Pharmacokinetics, oral single dose; assay type: in vivo, male Swiss Albino mice; conditions: male, Swiss Albino, plasma, 5 mg/kg, formulation by footnote: a 20% CremEL in H20, b 1% CMC in water, c 2% DMSO, 0.2% Tween80, 97.8% of 1% CMC
Procedure: Example 187: Mouse Pharmacokinetics
A dose of 5 mg/kg in an appropriate formulation was administered by oral gavage to fasted male Swiss Albino mice (n=3), and the plasma was collected at 0, 0.25, 0.5, 1, 2, 4, 8, and 24 h. Plasma levels were measured by HPLC/MS/MS methods and the pharmacokinetic parameters were determined for individual animals from plasma concentration-time data using noncompartmental model 200-202 in Phoenix WinNonlin 6.3.

[11] = target: HDAC2 (Homo sapiens (Human), UniProt Q92769); experiment: HDAC2 enzymatic assay; assay type: biochemical; conditions: selectivity profile; read-out: HDAC Enzyme IC50, HDAC 2
Procedure: as §1, §2, §3, §4

[12] = target: HDAC1 (Homo sapiens (Human), UniProt Q13547); experiment: HDAC1 enzymatic assay; assay type: biochemical
Outline: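 HDAC1 activity was measured in duplicate 50 μl reactions containing 0.5 ng HDAC1, 10 uM of HDAC substrate, and test compound in buffer (50 mM Tris-HCl, pH 7.4, 137 mM NaCl, 2.7 mM KCl, 0.05% Tween 20, 5 μg BSA) with 1% DMSO, incubated 17 hours at room temperature. HDAC Developer was then added for 20 minutes and fluorescence read at 360/460 nm.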

[13] = selectivity profile, read-out: HDAC Enzyme IC50, HDAC 6
[14] = selectivity profile, read-out: HDAC Enzyme IC50, HDAC 1

Sequence of HDAC10 (Q969S8 whole entry, species assumed): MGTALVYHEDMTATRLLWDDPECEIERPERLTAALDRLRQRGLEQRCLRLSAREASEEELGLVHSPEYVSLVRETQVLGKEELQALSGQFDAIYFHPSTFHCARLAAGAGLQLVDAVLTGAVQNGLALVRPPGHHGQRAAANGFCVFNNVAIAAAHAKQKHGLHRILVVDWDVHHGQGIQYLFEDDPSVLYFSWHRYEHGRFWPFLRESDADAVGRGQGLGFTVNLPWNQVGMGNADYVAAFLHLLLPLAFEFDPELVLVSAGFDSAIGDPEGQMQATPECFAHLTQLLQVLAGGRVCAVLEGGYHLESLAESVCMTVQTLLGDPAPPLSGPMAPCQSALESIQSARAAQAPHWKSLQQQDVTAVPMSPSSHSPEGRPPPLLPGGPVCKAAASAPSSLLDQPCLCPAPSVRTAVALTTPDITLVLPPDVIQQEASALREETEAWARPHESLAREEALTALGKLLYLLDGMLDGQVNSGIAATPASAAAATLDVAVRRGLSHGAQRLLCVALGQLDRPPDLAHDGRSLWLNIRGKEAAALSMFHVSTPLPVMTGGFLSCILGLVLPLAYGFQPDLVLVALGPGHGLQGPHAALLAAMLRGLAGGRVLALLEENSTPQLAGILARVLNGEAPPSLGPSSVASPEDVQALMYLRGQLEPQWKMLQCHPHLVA
Sequence of HDAC11 (Q96DB2 whole entry, species assumed): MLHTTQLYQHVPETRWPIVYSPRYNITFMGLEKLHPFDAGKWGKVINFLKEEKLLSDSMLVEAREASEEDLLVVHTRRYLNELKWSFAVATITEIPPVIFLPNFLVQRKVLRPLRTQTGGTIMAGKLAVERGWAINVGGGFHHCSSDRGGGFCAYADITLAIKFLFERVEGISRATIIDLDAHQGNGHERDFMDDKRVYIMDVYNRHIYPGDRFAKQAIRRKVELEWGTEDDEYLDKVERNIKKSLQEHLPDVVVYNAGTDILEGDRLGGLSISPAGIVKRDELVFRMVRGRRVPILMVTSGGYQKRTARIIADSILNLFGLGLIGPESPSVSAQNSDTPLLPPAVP
Sequence of HDAC9 (Q9UKV0 whole entry, species assumed): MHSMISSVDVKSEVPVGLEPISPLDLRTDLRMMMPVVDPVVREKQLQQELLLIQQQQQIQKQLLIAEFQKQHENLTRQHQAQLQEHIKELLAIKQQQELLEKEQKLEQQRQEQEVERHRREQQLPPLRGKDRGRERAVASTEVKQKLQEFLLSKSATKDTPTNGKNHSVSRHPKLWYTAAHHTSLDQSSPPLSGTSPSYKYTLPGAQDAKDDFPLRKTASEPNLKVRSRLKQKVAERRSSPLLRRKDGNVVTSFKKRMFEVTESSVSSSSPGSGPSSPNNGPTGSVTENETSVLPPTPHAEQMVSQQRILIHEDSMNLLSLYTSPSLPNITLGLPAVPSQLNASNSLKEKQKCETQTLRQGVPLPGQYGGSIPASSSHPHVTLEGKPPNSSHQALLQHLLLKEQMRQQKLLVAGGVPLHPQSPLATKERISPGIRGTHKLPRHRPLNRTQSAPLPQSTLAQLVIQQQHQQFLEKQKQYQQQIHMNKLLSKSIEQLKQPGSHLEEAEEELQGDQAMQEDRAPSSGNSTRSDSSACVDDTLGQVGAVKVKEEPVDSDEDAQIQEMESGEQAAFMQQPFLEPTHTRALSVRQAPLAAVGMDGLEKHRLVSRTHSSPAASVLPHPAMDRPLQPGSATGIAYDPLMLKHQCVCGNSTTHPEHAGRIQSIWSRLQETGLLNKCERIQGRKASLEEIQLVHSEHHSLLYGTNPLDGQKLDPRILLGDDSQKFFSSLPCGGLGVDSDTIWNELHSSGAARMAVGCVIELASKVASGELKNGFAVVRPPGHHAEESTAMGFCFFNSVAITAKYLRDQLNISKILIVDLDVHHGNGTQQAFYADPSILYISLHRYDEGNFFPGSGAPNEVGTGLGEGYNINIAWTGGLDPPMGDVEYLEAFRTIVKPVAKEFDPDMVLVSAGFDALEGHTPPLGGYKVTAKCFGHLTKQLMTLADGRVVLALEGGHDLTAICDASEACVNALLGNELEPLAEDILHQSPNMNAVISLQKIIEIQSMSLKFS
Sequence of HDAC4 (P56524 whole entry, species assumed): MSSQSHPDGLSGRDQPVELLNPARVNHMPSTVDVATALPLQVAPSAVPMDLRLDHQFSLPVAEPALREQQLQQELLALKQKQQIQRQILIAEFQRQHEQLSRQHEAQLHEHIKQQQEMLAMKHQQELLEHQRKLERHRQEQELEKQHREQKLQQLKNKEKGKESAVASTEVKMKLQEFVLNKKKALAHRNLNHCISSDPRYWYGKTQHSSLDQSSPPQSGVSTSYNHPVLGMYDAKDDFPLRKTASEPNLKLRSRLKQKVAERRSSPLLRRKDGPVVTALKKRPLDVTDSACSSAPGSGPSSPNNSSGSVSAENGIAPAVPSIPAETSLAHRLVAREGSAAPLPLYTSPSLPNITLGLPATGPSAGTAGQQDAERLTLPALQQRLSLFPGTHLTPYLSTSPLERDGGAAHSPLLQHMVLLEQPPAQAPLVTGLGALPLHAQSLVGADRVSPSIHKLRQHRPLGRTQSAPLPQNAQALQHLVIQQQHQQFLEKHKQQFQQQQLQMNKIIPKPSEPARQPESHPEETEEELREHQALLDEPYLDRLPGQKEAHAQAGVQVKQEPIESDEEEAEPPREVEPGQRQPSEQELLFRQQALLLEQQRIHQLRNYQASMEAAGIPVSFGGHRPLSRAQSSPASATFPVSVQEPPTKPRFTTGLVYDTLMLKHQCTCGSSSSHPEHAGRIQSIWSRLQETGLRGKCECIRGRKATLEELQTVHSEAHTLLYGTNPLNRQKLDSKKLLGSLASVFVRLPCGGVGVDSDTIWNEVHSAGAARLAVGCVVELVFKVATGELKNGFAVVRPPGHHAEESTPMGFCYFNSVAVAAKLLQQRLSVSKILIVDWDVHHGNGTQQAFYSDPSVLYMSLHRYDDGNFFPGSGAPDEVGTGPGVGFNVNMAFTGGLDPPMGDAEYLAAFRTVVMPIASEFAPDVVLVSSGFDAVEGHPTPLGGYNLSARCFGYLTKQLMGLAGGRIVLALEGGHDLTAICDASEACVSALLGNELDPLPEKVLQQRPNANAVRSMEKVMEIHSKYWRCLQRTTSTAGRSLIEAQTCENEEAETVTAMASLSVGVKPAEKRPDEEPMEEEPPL
Sequence of HDAC2 (Q92769 whole entry, species assumed): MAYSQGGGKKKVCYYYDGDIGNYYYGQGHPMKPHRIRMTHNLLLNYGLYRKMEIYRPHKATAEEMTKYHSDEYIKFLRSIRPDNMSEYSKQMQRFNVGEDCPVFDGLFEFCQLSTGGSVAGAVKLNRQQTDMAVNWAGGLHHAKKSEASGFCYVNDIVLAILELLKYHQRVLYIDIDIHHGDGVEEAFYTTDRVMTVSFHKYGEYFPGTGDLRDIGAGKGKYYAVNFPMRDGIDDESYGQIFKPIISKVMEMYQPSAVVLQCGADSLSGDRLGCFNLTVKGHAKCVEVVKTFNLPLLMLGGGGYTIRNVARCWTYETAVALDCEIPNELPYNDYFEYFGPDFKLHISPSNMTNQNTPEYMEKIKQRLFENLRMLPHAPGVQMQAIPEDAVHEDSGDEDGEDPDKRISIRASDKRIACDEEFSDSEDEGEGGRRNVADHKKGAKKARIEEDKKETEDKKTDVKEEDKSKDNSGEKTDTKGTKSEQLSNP
Sequence of HDAC6 (Q9UBN7 whole entry): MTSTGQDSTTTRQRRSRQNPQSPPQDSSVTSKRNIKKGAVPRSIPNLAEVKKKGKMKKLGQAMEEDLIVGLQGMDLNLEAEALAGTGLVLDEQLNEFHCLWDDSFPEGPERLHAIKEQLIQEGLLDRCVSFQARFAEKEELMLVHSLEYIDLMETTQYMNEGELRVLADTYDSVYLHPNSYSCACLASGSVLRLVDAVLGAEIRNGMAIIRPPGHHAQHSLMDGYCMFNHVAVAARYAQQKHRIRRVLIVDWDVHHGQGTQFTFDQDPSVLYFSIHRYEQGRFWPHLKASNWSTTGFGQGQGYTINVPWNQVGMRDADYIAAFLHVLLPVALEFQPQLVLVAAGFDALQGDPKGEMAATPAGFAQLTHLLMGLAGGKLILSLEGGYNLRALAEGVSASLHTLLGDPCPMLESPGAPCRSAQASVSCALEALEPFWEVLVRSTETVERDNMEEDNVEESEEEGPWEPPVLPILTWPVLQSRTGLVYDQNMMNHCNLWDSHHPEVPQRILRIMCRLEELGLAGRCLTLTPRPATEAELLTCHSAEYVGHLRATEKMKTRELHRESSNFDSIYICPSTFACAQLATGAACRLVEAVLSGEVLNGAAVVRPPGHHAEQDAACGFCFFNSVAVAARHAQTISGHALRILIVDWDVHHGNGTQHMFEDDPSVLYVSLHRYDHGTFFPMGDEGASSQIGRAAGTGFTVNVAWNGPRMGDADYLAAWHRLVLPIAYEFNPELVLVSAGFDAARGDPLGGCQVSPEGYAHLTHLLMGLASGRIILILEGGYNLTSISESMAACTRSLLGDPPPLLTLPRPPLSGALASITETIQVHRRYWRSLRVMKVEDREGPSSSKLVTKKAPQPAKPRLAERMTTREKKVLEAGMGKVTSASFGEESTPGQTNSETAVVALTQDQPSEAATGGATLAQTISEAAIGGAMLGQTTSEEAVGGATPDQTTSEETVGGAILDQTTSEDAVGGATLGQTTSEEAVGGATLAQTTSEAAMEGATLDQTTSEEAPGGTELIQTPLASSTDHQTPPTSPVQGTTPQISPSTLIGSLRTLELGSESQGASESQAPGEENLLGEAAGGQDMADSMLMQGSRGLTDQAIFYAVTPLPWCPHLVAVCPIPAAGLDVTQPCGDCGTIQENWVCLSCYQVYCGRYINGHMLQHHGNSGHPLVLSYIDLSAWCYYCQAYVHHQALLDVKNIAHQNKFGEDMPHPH

IC50 [1] [µM] | IC50 [2] [µM] | IC50 [3] [µM] | IC50 [4] [µM] | IC50 [5] [µM] | IC50 [6] [µM] | IC50 [7] [µM] | IC50 [8] [µM] | IC50 ([9]; read-out: Human HDAC6 IC50) [µM] | IC50 [9, 13] [µM] | Cmax [10] [ng/mL] | half-life [10] [h] | IC50 [11] [µM] | IC50 ([12]; read-out: Human HDAC1 IC50) [µM] | IC50 [12, 14] [µM] | SMILES
> 30 | > 30 | > 30 | > 30 | > 30 | > 30 | > 30 | > 30 | 0.028 | 0.028 | 830 | 4.3 | > 30 | > 30 | > 30 | O=S(=O)(NCC(Nc1ncc(-c2nnc(C(F)F)o2)cn1)c1ccc(F)cc1)C1CC1 (centres unmarked) [Example 110, N-(2-((5-(5-(difluoromethyl)-1,3,4-oxadiazol-2-yl)pyrimidin-2-yl)amino)-2-(4-fluorophenyl)ethyl)cyclopropanesulfonamide]
> 30 | > 30 | > 30 | 16.7 | > 30 | > 30 | > 30 | > 30 | 0.015 | 0.015 | 1110 | 2.7 | > 30 | > 30 | > 30 | CS(=O)(=O)NCC(Nc1ncc(-c2nnc(C(F)F)o2)cn1)c1ccc(F)cc1 (single isomer, unassigned) [38(+), N-(2-((5-(5-(difluoromethyl)-1,3,4-oxadiazol-2-yl)pyrimidin-2-yl)amino)-2-(4-fluorophenyl)ethyl) methanesulfonamide]
> 30 | > 30 | > 30 | 11.9 | > 30 | > 30 | 10.7 | > 30 | 0.018 | 0.018 | 656 | 4.3 | > 30 | > 30 | > 30 | CS(=O)(=O)NCC(Nc1ncc(-c2nnc(C(F)F)o2)cn1)c1ccc(OC(F)F)cc1 (single isomer, unassigned) [115(+), N-(2-(4-(difluoromethoxy)phenyl)-2-((5-(5-(difluoromethyl)-1,3,4-oxadiazol-2-yl)pyrimidin-2-yl)amino)ethyl)methanesulfonamide]
> 30 | > 30 | > 30 | 24.4 | > 30 | > 30 | 13.8 | > 30 | 0.029 | 0.029 | – | – | > 30 | > 30 | > 30 | O=C(NCC(Nc1ncc(-c2nnc(C(F)F)o2)cn1)c1ccc(F)cc1)C1CC1 (single isomer, unassigned) [168(+), N-(2-((5-(5-(difluoromethyl)-1,3,4-oxadiazol-2-yl)pyrimidin-2-yl)amino)-2-(4-fluorophenyl)ethyl)cyclopropanecarboxamide]
> 30 | > 30 | > 30 | > 30 | > 30 | > 30 | > 30 | > 30 | 0.008 | 0.008 | – | – | > 30 | > 30 | > 30 | Fc1ccc(C2(Nc3ncc(-c4nnc(C(F)F)o4)cn3)CC2)c(Cl)c1 [Example 62, N-(1-(2-chloro-4-fluorophenyl)cyclopropyl)-5-(5-(difluoromethyl)-1,3,4-oxadiazol-2-yl)pyrimidin-2-amine]
> 30 | > 30 | > 30 | > 30 | > 30 | > 30 | > 30 | > 30 | 0.006 | 0.006 | – | – | > 30 | > 100 | > 100 | Fc1cccc(F)c1C1(Nc2ncc(-c3nnc(C(F)F)o3)cn2)CC1 [Example 11, 5-(5-(difluoromethyl)-1,3,4-oxadiazol-2-yl)-N-(1-(2,6-difluorophenyl)cyclopropyl)pyrimidin-2-amine]
> 30 | > 30 | > 30 | > 30 | > 30 | > 30 | > 30 | > 30 | 0.029 | 0.029 | 697 | 23.2 | > 30 | > 30 | > 30 | CS(=O)(=O)N(CC(Nc1ncc(-c2nnc(C(F)F)o2)cn1)c1ccc(F)cc1)CC(F)(F)F (single isomer, unassigned) [118(+), N-(2-((5-(5-(difluoromethyl)-1,3,4-oxadiazol-2-yl)pyrimidin-2-yl)amino)-2-(4-fluorophenyl)ethyl)-N-(2,2,2-trifluoroethyl)methanesulfonamide]
> 30 | > 30 | > 30 | > 30 | > 30 | > 30 | > 30 | > 30 | 0.034 | 0.034 | – | – | > 30 | > 100 | > 100 | Fc1ccc(C2(Nc3ncc(-c4nnc(C(F)F)o4)cn3)CC2)cc1 [Example 5, 5-(5-(difluoromethyl)-1,3,4-oxadiazol-2-yl)-N-(1-(4-fluorophenyl)cyclopropyl)pyrimidin-2-amine]
> 30 | > 30 | > 30 | > 30 | > 30 | > 30 | > 30 | > 30 | 0.038 | 0.038 | – | – | > 30 | > 30 | > 30 | CC(C)(Nc1ncc(-c2nnc(C(F)F)o2)cn1)c1ccc(F)cc1 [Example 9, 5-(5-(difluoromethyl)-1,3,4-oxadiazol-2-yl)-N-(2-(4-fluorophenyl)propan-2-yl)pyrimidin-2-amine]
